Measured values as given in patent US7414068B2, “Benzopyran derivatives substituted with secondary amines including tetrazole, method for the preparation thereof and pharmaceutical compositions containing them” (Dongbu Hannong Chemical Co., Ltd., priority 2002, dated 2008).

Columns and labels:
[1] = tested on: new born rats; assay: Protective effect on ischemic-hypoxic brain injury (MRS); assay type: in vivo, rat; conditions: for Lip/Cr / Lip/NAA: MRS
Text: By using the said report, the protective effect on brain damage induced by hypoxia […] was investigated. [Van der A. Toorn et al. Magnetic Resonance in Medicine, 1996, 36, 914-922]. It was reported that the lipid peak was increased in MRS by ischemic neuronal cell injury due to the destruction of cell membrane including blood-brain barrier. Also, it was reported that increase of lipid concentration was correlated to apoptosis. [A. Bizzi et al., Magnetic Resonance Imaging, 1996, 14, 581-592]. Therefore, it was reported that Lipid/NAA and Lipid/Cr obtained by comparing lipid with N-acetylaspartate (NAA) and creatine (Cr) as marker of neuronal cell was correlated to morphological changes and severity of apoptosis on hypoxic brain damage.
In new born rats (within 7 days, 10˜15 g), left carotid artery were intermitted for 3 hours to induce hypoxia. Test compounds were intraperitoneally injected before 1 hour of hypoxia. […] of which the carotid artery was intermitted was used as ischemic-hypoxic model, right eye of which the carotid artery was not intermitted was used as hypoxic model. Magnetic resonance spectrum was obtained from both models, after histological test, accomplished in one day from damage. From the said result, Lipid/NAA or Lipid/Cr was measured. Also, viability and morphological score by macroscopic observation of infarct volume was calculated.

[2] = Acute oral toxicity test in rats; conditions: SD, rat, in vivo, single oral dose, suspended in 0.5% methyl cellulose, read-out: lethal dose (LD50) for oral administration
Procedure, shortened: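 Six-week-old SPF SD rats, two per group, received compounds orally as suspensions in 0.5% methyl cellulose. Endpoints were clinical signs, body weight, mortality, haematology, serum biochemistry and macroscopic necropsy of organs and tissues.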

[3] = tested on: cortical neuron cells; assay: Protective effect on iron-induced neuronal cell injury (LDH release); assay type: cell-based; conditions: FeSO4 50 μM; for IC50: LDH
Procedure, shortened: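 Embryonic (day 17–18) cortical neurons cultured 7–9 days, serum lowered to 0.2%, pretreated 30 min with compound (DMSO ≤0.1%), then exposed to 50 μM FeSO4 for 24 h. LDH released to medium measured; protection expressed as LDH reduction versus vehicle control.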

[4] = tested on: Low density lipoprotein of human (human LDL); assay: Inhibitory effect against lipid peroxidation induced by copper (LDL oxidation, MDA); assay type: biochemical; conditions: CuSO4 10 μM, 37° C. 18 hours
Description: Low density lipoprotein of human (human LDL, sigma) was dissolved in water to be final concentration of 1 mg/ml. To remove EDTA (ethylenediamine tetraacetate), the aqueous solution was dialyzed in phosphate buffer at 4° C. for 18 hours. At this dialysis, phosphate buffer was changed three times. Phosphate buffer was added to LDL (100 μg LDL protein/ml) which EDTA was removed from the aqueous solution, additionally thereto CuSO4 10 μM as oxidant was added. […] Group to which CUSO4 was not added was used as blank group. Group to which CUSO4 and vehicle were added in place of test compounds was used as control group. The mixture was incubated at 37° C. for 18 hours. EDTA […] was added to the mixture to terminate the oxidation reaction.
As shown in example 4, Cu^2+ facilitates the oxidation reaction to produce malondialdehyde (MDA), lipid peroxidation product. The MDA quantification is achieved by reacting samples with 2-thiobarbituric acid (TBA) and measuring the absorbance at 530 nm. Also, 1,1,3,3-tetramethoxypropane purchased from sigma was used as standard materials. Inhibitory effect against lipid peroxidation of the test compounds was measured by MDA (nmol) to protein (mg). Decrease of MDA to that of control group was calculated.

[5] = Hypoxic, 50 mg/kg intraperitoneally

With COC(OC)[C@@]1(C)Oc2ccc(N)cc2[C@H](N(Cc2nnn(C)n2)c2ccc(Cl)cc2)[C@H]1O [Example 11, (2S,3R,4S)-6-amino-4-[N-(4-chlorophenyl)-N-(2-methyl-2H-tetrazol-5-ylmethyl)amino]-3-hydroxy-2-methyl-2-dimethoxymethyl-3,4-dihydro-2H-1-benzopyran] the “Survival (%)” value ([1]; 50 mg/kg) was 79%, the “Survival (animals surviving/total)” value ([1]; 50 mg/kg) was 19/24 and the Morphological score ([1]; 50 mg/kg, macroscopic observation of infarct volume) was 1.4. The Lip/Cr [1, 5] was 1.55, the Lip/NAA [1, 5] was 1.69 and the Lip/NAA ([1]; Ischemic-hypoxic, 50 mg/kg intraperitoneally 1 hour before hypoxia) was 5.43. The Lip/Cr ([1]; Ischemic-hypoxic, 50 mg/kg intraperitoneally) was 5.16, the LD50 [2] was greater than 2000 mg/kg and the “protective effect on neuron cell: Inhibition (%, 30 μM compound addition)” value ([3]; 30 μM compound, 24 hours, LDH reduction vs control) was 93%. For the same molecule, the IC50 ([3]; Cortical neurone, 24 h) was less than 2000 nM, the IC50 ([3]; 24 hours) was 2000 nM and the “Inhibitory effect(%) against lipid peroxidation induced by copper” value (“Inhibitory effect(%)” below) ([4]; Addition 10^−5 M) was 63.9%. The “Inhibitory effect(%)” value ([4]; Addition 10^−6 M) was 54.9% and the “Inhibitory effect(%)” value ([4]; Addition 10^−7 M) was 27.3%.
